The structures appear in SMILES notation.

Assay [1] deals with T1, PVA-nitrate immobilized laccase (Cyathus bulleri, UniProt A8W7J6).
T1 sequence (A8W7J6 17-513): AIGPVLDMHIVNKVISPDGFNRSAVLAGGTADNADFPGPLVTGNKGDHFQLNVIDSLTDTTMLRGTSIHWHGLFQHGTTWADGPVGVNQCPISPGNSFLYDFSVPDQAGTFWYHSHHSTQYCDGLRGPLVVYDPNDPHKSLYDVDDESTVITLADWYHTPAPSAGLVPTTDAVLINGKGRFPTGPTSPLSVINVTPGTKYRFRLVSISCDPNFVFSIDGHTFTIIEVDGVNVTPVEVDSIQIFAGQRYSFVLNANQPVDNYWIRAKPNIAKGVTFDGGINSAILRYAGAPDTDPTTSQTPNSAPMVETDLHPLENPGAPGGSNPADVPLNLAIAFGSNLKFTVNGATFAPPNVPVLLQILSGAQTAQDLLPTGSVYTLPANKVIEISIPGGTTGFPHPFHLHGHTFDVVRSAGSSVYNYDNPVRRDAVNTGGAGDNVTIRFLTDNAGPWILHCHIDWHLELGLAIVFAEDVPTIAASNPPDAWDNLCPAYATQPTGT
The experiment in a line: Laccase assay with inhibitors and ABTS kinetics, immobilized enzyme. The following applies: 1 h pre-incubation. The class given is biochemical.

For assay [2], the target named is T2, Free laccase (Cyathus bulleri, UniProt A8W7J6).
T2 sequence (A8W7J6 17-513): T1 sequence (A8W7J6 17-513)
The experiment in a line: Laccase assay with inhibitors and ABTS kinetics, free enzyme. The class given is biochemical. The note with it: 1 h pre-incubation.

Consider `[N-]=[N+]=[N-]` [sodium azide], for which the IC50 in assay [1] was determined as 6 ± 0.3 µM; in assay [2], 5 ± 0.5 µM.

As usually defined, the IC50 is the concentration that inhibits the measured activity by half. A lower IC50 goes with greater potency.
